In data set [1] the target is T1, full length heterotrimeric human RPA (Homo sapiens, UniProt P27694).
T1 construct: Full length, heterotrimeric human RPA (fl-RPA) and DBD-A/B constructs were expressed and purified; made in house
Nature of the data set: Electrophoretic mobility shift assay (EMSA), binding of full length human RPA to ssDNA. As to conditions: for IC50: full length human RPA binding to DNA, mean ± SD of minimum triplicate experiments. Here is the method:
(§1) Full length, heterotrimeric human RPA (fl-RPA) and DBD-A/B constructs were expressed and purified according to previously described protocol. The DBD-A/B construct was expressed as a His6-RPA181-422 fusion protein. E. coli BL21 (DE3) cells in log growth were induced for 3 h with 0.5 mM IPTG at 37° C. The cells were lysed via sonication in buffer containing 20 mM Tris pH 7.5, 500 mM NaCl, 10 mM b-mercaptoethanol, supplemented with 25 μg/mL lysozyme, 1 μg/mL leupeptin, 1 μg/mL pepstatin and 0.5 mM PMSF. The lysate was applied to a 20 mL phosphocellulose column equilibrated in the same buffer and the flow-through material collected, brought to 5 mM Imidazole and loaded onto a 2 ml Ni-NTA column. The column was washed and proteins eluted on with a gradient from 50 mM to 500 mM imidazole. Fractions were assessed by EMSA and SDS-PAGE and DBD-A/B containing fraction were pool, dialyzed against buffer containing 50 mM HEPES pH 7.0, 500 mM NaCl and 1 mM DTT and stored at −80° C.
(§2) EMSAs were carried out using previously described procedure with the following modification. EMSA reactions (20 μL) were performed with 50 nM fl-RPA and 2.5 nM 5′ [^32P]-labeled 34-base DNA in buffer containing 20 mM HEPES (pH 7.8), 1 mM DTT, 0.001% NP-40, 50 mM NaCl. Chemical compounds were suspended in DMSO and DMSO concentration in the reaction mixture was kept constant at 2% or below 5%. RPA was incubated with inhibitor or DMSO control in reaction buffer for 30 min before the addition of DNA. Reactions were incubated for 5 min at room temperature and products separated via 6% native polyacrylamide gel electrophoresis. The bound and unbound fractions were then quantified by phosphor-imager analysis using ImageQuant software (Molecular Dynamics, CA) and IC50 values calculated by non-linear regression using SigmPlot (Sysat). For EMSA reactions with RPA DBD-A/B, 150 nM DBD-A/B was used, and electrophoresis was performed at 4° C. All other conditions were identical to those described for the full-length RPA.
Purified full length heterotrimeric human RPA protein was used to screen a series of analogs in an electrophoretic mobility shift assay (EMSA) measuring direct binding to a ss-DNA substrate. Quantification of the EMSA data and additional concentration dependent analysis to measure IC50 values of newly synthesized analogs provided potential insight into the structure-activity relationships (Table 1 and 2). […] Fluorine and trifluoromethyl substituents were included in pyridinyl compounds 28-29.

The target in data set [2] is T2, RPA DBD-A/B construct (His6-RPA181-422 of RPA70) (Homo sapiens, UniProt P27694).
T2 construct: The DBD-A/B construct was expressed as a His6-RPA181-422 fusion protein; His6 (N); made in house; host or cells: E. coli BL21 (DE3)
Nature of the data set: EMSA, binding of RPA DBD-A/B construct to DNA. Particulars: mean ± SD, read-out: RPAA/B IC50. Here is the method: as §1, §2
These domains are compact modular domains populated with hydrophobic and basic DNA binding amino acid residues and have great potential to influence binding of the compounds to the RPA70 subunit. RPA DBD-A/B construct was purified via Ni-affinity chromatography. The activity of compounds 23-27 was evaluated on purified DBD-A/B construct using EMSA.
In general terms: In EMSA bound probe runs differently from free probe, usually more slowly.

For data set [3], the system named is sonicated salmon sperm DNA. Nature of the data set: Fluorescent intercalator displacement (FID) assay, SYBR-Green. As to conditions: 25 mM MOPS pH 6.5. It counts as binding. Here is the method: The analysis of compound interactions with DNA was determined by inhibition of SYBR-Green intercalation into DNA as we have previously described. Briefly, reactions were performed in 25 mM MOPS (pH 6.5) containing sonicated salmon sperm DNA (8.29 ng/μL), SYBR-Green, and the indicated concentrations of RPA inhibitors. Reactions were conducted in black 96-well plates. Doxorubicin, a known noncovalent DNA binding chemotherapeutic, was used as a positive control. Fluorescence was measured using a BioTek® Synergy™ H1 hybrid multi-mode microplate reader with an excitation wavelength of 485 nm, emission wavelength of 528 nm, and a read height of 7 mm. Data were collected using BioTek® Gen5™ reader software. Reactions were incubated a maximum of 5 min before measurements were collected.
(§3) In order to probe the potential role of DNA intercalation as a mechanism for RPA inhibition, compounds 19, 23, 26, 27, 43 and 45 were analyzed using FID assay along with doxorubicin (Dox) as a positive control. […] In addition, direct binding of 9 derivatives to the target protein was assessed using a differential scan fluorimetry (DSF) assay. This assay assesses the melting profile of a protein at increasing temperatures via fluorescent dye binding. The direct interaction of a small molecule to the target protein can either increase or decrease the melting temperature (Tm) of the target depending on the specific protein and their interactions. […] Heparin sulfate, a known RPA interacting molecule often used in the purification of the protein was used as a control. […] (data not shown). […] (FIG. 1B).

The nature of data set [4]: Aqueous solubility in unbuffered water. It counts as physicochemical. Particulars: 43, 44, 45, 46, 47 vs 9, 16, 26, 28, 29 respectively. Here is the method:
Aqueous solubility was determined by suspending compound in un-buffered water with stirring. Insoluble material was removed by sedimentation or filtration and soluble compound quantified by absorbance spectroscopy and LC/MS. pH dependence was determined by suspending compound in 10 mM citrate buffer at pH 4.0 or 10 mM phosphate […] as described above in the description.
The morpholine ring is commonly introduced into solvent exposed regions as a privileged solubilizing group to improve solubility or pharmacokinetic properties including metabolic stability of a prospective drug scaffold which is exemplified by many FDA approved drugs. Modifications on Ring A had less of an effect than the morpholino modifications at the alkyl carboxylic acid side chain. To determine the effect of pH on solubility, we prepared solution at 1 mM in citrate buffer at pH 4, phosphate buffer at pH 7 and carbonate buffer at pH 9.5.

Data set [5] deals with T3, RPA-AB construct (RPA70 AB domain) (Homo sapiens, UniProt P27694).
T3 construct: The DBD-A/B construct was expressed as a His6-RPA181-422 fusion protein; His6 (N); made in house; host or cells: E. coli BL21 (DE3)
Nature of the data set: Differential scanning fluorimetry (DSF). It counts as binding. Here is the method:
as §3
The interaction of compound 43 with RPA-AB constructs was performed by differential scanning fluorimetry using GloMelt™ Dye (Biotum). […] Reactions were run in an ABI 7500 real time PCR machine with temperature increasing from 25° C. to 99° C. at a 2% ramp (˜40 minutes) and fluorescence of the reporter was measured on the SYBR® Green setting. […] Data was uploaded to TSA-CRAFT software and Tm calculated as described by Lee et al. Heparin was employed as a positive control of binding to the AB-box of RPA.
In general terms: In DSF a fluorescence change marks the thermal transition of the protein.

T1 sequence (P27694 whole entry): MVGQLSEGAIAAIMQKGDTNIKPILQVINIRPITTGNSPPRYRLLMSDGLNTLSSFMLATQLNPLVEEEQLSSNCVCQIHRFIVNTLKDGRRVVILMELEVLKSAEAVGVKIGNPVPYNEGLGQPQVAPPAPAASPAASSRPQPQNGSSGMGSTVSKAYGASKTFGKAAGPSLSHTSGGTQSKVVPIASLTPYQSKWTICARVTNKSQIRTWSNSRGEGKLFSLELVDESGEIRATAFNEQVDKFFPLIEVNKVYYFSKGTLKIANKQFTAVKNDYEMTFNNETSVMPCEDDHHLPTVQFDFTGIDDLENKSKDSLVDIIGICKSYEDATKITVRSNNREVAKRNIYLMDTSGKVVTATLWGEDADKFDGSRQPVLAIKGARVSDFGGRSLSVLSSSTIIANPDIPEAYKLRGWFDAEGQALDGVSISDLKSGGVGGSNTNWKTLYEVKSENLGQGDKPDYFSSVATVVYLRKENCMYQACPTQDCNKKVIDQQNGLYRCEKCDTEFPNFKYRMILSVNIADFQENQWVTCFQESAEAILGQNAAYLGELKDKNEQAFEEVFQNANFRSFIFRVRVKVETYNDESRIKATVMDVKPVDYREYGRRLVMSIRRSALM
T1 sequence (P15927 whole entry partner): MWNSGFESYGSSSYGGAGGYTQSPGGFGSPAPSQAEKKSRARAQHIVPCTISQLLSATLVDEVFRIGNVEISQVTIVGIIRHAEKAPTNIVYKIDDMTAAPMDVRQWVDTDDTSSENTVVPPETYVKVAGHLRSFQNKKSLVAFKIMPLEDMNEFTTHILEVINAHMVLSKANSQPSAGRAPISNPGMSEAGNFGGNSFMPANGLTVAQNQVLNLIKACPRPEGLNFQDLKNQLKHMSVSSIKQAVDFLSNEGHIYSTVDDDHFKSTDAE
T1 sequence (P35244 whole entry partner): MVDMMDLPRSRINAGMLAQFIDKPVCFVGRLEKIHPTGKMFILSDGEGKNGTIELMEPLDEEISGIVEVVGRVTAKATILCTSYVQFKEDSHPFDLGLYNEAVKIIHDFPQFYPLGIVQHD
T2 sequence (P27694 181-422): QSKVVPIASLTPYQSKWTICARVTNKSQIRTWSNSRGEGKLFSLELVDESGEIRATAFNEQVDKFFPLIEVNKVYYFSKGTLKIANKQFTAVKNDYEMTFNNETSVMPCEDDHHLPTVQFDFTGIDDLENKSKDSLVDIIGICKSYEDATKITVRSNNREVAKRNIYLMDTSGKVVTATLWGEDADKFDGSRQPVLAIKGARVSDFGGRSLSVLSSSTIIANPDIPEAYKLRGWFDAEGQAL
T3 sequence (P27694 181-422): as above

With `CCOc1ccc2cc(C3CC(c4ccc(-c5ccco5)cc4)=NN3C(=O)CCCC(=O)O)c(Cl)nc2c1` (centres unmarked) [Compound 23, 5-(5-(2-Chloro-7-ethoxyquinolin-3-yl)-3-(4-(furan-2-yl)phenyl)-4,5-dihydro-1H-pyrazol-1-yl)-5-oxopentanoic acid], the “fold increase in activity compared to compound 22” value in data set [1] (full length RPA) is on record as about 3.2 fold. Also, the values for the IC50 in data set [1] and in data set [2] were 2.1 ± 0.48 µM and 3.3 ± 0.07 µM, respectively. Besides, the “DNA binding activity (displacement of SYBR-Green intercalator)” value (“DNA binding activity” for short) in data set [3] was “No significant DNA binding activity”.
On to `CCOc1ccc2cc(C3CC(c4ccc(-c5cnoc5)cc4)=NN3C(=O)CCCC(=O)O)c(Cl)nc2c1` (centres unmarked) [Compound 24, 5-(5-(2-Chloro-7-ethoxyquinolin-3-yl)-3-(4-(isoxazol-4-yl)phenyl)-4,5-dihydro-1H-pyrazol-1-yl)-5-oxopentanoic acid], for which the results for the IC50 in data set [1] and in data set [2] were 1.71 ± 0.28 µM and 4.03 ± 0.28 µM, respectively.
The corresponding values for `CCOc1ccc2cc(C3CC(c4ccc(-c5ccc(N6CCOCC6)cc5)cc4)=NN3C(=O)CCCC(=O)O)c(Cl)nc2c1` (centres unmarked) [Compound 25, 5-(5-(2-Chloro-7-ethoxyquinolin-3-yl)-3-(4′-morpholino-[1,1′-biphenyl]-4-yl)-4,5-dihydro-1H-pyrazol-1-yl)-5-oxopentanoic acid] are 3.14 ± 0.23 µM and 16.4 ± 2.09 µM.
Take `CCOc1ccc2cc(C3CC(c4ccc(-c5ccc(Br)nc5)cc4)=NN3C(=O)CCCC(=O)O)c(Cl)nc2c1` (centres unmarked) [Compound 27, 5-(3-(4-(6-Bromopyridin-3-yl)phenyl)-5-(2-chloro-7-ethoxyquinolin-3-yl)-4,5-dihydro-1H-pyrazol-1-yl)-5-oxopentanoic acid]: the IC50 was found to be 1.01 ± 0.6 µM in data set [1] and 3.32 ± 0.016 µM in data set [2]. Besides, the “DNA binding activity” value in data set [3] is listed as “No significant DNA binding activity”.
Regarding `CCOc1ccc2cc(C3CC(c4ccc(-c5ccc(Cl)nc5)cc4)=NN3C(=O)CCCC(=O)NCCCN3CCOCC3)c(Cl)nc2c1` (centres unmarked) [Compound 45, 5-(5-(2-Chloro-7-ethoxyquinolin-3-yl)-3-(4-(6-chloropyridin-3-yl)phenyl)-4,5-dihydro-1H-pyrazol-1-yl)-N-(3-morpholinopropyl)-5-oxopentanamide], in data set [1], the IC50 was found to be 4.06 ± 0.56 µM. Also, the “DNA binding activity” value in data set [3] is “No significant DNA binding activity”. For the same compound, the “aqueous solubility compared to carboxylic acid counterpart (in words)” value in data set [4] was “increased solubility”.
`CCOc1ccc2cc(C3CC(c4ccc(-c5ccc(C(F)(F)F)nc5)cc4)=NN3C(=O)CCCC(=O)NCCCN3CCOCC3)c(Cl)nc2c1` (centres unmarked) [Compound 47, 5-(5-(2-Chloro-7-ethoxyquinolin-3-yl)-3-(4-(6-(trifluoromethyl)pyridin-3-yl)phenyl)-4,5-dihydro-1H-pyrazol-1-yl)-N-(3-morpholinopropyl)-5-oxopentanamide]: the IC50 in data set [1] is 5.85 ± 0.39 µM. The “aqueous solubility compared to carboxylic acid counterpart (in words)” value in data set [4] was “increased solubility”.
On to heparin [reference compound], for which the “decrease in Tm” value in data set [5] was found to be 1.2 °C.

Values taken from patent publication US12486246B2, “Replication protein A (RPA)-DNA interaction inhibitors” (THE TRUSTEES OF INDIANA UNIVERSITY, priority 2019, dated 2025).
